Data on 13 molecules can be found in ChEMBL document CHEMBL1201862, “PubChem BioAssay data set” (2004).

Assay [1] concerns the target T1, Corticotropin-releasing factor receptor 2/Corticotropin-releasing factor-binding protein (Homo sapiens, UniProt P24387+Q13324).
T1 sequence (Q13324 whole entry): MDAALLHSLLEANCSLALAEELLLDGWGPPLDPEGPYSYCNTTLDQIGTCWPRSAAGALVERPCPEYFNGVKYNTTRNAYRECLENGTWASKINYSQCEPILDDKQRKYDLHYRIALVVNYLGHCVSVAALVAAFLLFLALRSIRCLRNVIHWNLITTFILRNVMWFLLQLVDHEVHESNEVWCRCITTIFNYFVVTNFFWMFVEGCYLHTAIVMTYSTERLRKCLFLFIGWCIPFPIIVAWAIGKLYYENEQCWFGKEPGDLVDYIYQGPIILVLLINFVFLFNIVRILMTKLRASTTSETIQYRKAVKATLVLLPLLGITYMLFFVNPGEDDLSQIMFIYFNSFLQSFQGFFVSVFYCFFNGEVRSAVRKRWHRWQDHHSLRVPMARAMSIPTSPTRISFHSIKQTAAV
T1 sequence (P24387 whole entry): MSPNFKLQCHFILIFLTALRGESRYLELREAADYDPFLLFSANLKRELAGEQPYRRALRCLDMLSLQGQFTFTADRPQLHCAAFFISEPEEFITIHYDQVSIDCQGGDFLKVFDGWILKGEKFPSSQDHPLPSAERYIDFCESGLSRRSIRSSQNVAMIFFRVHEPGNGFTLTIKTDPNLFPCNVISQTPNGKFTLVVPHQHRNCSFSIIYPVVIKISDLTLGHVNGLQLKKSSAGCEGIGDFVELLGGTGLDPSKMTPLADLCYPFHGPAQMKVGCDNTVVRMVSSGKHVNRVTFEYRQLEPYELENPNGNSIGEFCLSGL
Nature of the assay: Dose Response confirmation of uHTS hits for small molecule antagonists of the CRF-binding protein and CRF-R2 receptor complex. It is filed as functional. The settings on record: read-out: IC50_Mean.

In assay [2] the target is T1, Corticotropin-releasing factor receptor 2/Corticotropin-releasing factor-binding protein. Nature of the assay: activators of CRF receptor 2 with binding protein – uHTS hits, confirmation (AID 602473). The format is functional. The settings on record: read-out: EC50_Mean.
Assay [3] in a line: CRF-BP/CRF-R2 complex antagonists, dose response, cell-based, uHTS hits, 384-well (AID 651639). It is filed as functional, Homo sapiens. The note with it: read-out: IC50_Mean.
Assay [4] addresses Genome polyprotein (dengue virus type 2, UniProt P29990). Nature of the assay: Dengue-2 NS5 methyltransferase inhibitors, primary screen, biochemical, confirmation dose response (AID 588689). It is filed as functional.
The target of assay [5] is T2, Polyadenylate-binding protein 1 (Homo sapiens, UniProt P11940). The experiment in a line: PABP1 MLLE–PAM2 interaction inhibitors, dose response, miRNA deadenylation inhibitor project, biochemical, fluorescence polarization, Cy5-PAM2 peptide, secondary (AID 602260). It is filed as functional. The note with it: read-out: IC50_Mean. On the technique in general: In fluorescence polarisation assays a small probe gives low polarisation when free and higher when bound to something large.

Assay [6] has as its target T2, Polyadenylate-binding protein 1. The experiment in a line: PABP1 MLLE–PAM2 binding inhibitor potency, dose response, biochemical, fluorescence polarization, FITC-PAM2 peptide (AID 602259). It is filed as functional. The note with it: read-out: IC50_Mean.
Assay [7] addresses T3, Fatty acid synthase (Homo sapiens, UniProt P49327). Nature of the assay: FAS thioesterase domain inhibitors, dose response, biochemical, endpoint fluorescence intensity, uHTS hits (AID 624327).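 Note: fluorescence from hydrolysis of an O-methyl fluorescein acyl ester substrate by the enzyme.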 It is filed as functional.
Assay [8] addresses T3, Fatty acid synthase. Nature of the assay: FAS thioesterase domain inhibitors, dose response, biochemical, kinetic fluorescence intensity (AID 624326).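 Note: rate of fluorescence rise from hydrolysis of a fluorogenic O-methyl fluorescein ester substrate.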 The format is functional.
Assay [9] deals with BJ. Nature of the assay: cytotoxicity toward BJ-TERT fibroblasts, dose response, cell-based, RAS-independent, luminescence (AID 1933). The format is functional. The note with it: Homo sapiens.
The subject of assay [10] is BJ. Nature of the assay: cells. The format is functional, cell-based. The note with it: Homo sapiens.
Assay [11] has as its system BJ. Nature of the assay: cytotoxicity toward BJ-TERT-LT-ST fibroblasts, dose response, cell-based, RAS-independent, luminescence (AID 1935).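 Note: BJ fibroblasts immortalized with TERT plus LT and ST oncogenes.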 It is filed as functional. The settings on record: Homo sapiens.
Assay [12] can be described thus: cytotoxicity toward DRD oncogenic fibroblasts, dose response, cell-based, non-viral oncogenic, luminescence (AID 1934). The note with it: Homo sapiens. The format is functional.
Assay [13] concerns BJ. The experiment in a line: cytotoxicity toward Ras-transformed BJeLR fibroblasts, dose response, cell-based, alamar blue fluorescence, cherrypicked samples (AID 2631).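 Note: confirmatory dose-response assay in RAS-dependent BJ fibroblasts engineered with TERT, LT and ST, with cytotoxicity read by fluorescence.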 It is filed as functional. The settings on record: Homo sapiens. (Resazurin is reduced to fluorescent resorufin, in cell work by metabolically active cells.)
Assay [14] has as its system HEK293. The experiment in a line: inhibitors of LMP1-driven NF-kB reporter, dose response, cell-based, HEK293, luciferase, cherry-pick (AID 588343). It is filed as functional. The note with it: Homo sapiens.
Assay [15] deals with HEK293. The experiment in a line: NOD1 signaling inhibitors, primary screen, cell-based, luminescence, uHTS (AID 1578). It is filed as functional. The settings on record: Homo sapiens.
Assay [16] relates to HEK293. The experiment in a line: cells. It is filed as functional, cell-based. The settings on record: Homo sapiens.
In assay [17] the test system is H4. Nature of the assay: Luminescence Cell-Based Dose Response HTS to Identify Activators of 5'UTR Stem-Loop Driven Prion Protein mRNA Translation in H4 Neuroglioblastoma Cells. [Related pubchem assays: 1829 (Project Summary), 1814 (Primary HTS)]. The settings on record: Homo sapiens. The format is functional.
The test system of assay [18] is HEK293. The experiment in a line: cells. The settings on record: Homo sapiens. The format is functional, cell-based. This is another data set of the same source.
Assay [19] deals with Nucleotide-binding oligomerization domain-containing protein 2 (Homo sapiens, UniProt Q9HC29). Nature of the assay: NOD2 signaling inhibitors, cell-based, luminescence, uHTS, HEK293 (AID 1566). The format is functional.
The subject of assay [20] is HEK293. The experiment in a line: NOD2 signaling inhibitors in MDP-stimulated cells, cell-based, uHTS, luminescence (AID 2001). The settings on record: Homo sapiens. It is filed as functional.
In assay [21] the test system is HEK293. Nature of the assay: cells. The format is functional, cell-based. The settings on record: Homo sapiens. This is another data set of the same source.
A short description of assay [22]: cytotoxicity in HEK-293T cells, dose response, cytotoxicity control for TCR NF-kB inhibitor project, luminescence, T-cell screen hits (AID 489026).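 Note: cells exposed to compound about 14 hours before the viability readout.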 The format is functional, cell-based.
Assay [23] deals with Glucose-6-phosphate 1-dehydrogenase (Homo sapiens, UniProt P11413). The experiment in a line: human G6PD enzyme inhibitors, dose response, selectivity assay for P. falciparum G6PD inhibitor project, biochemical, fluorescence (AID 504792). It is filed as functional.

Each structure is given as a SMILES string. Activity calls are given as the source filed them. Some results are limits rather than exact numbers.

Sequence of Genome polyprotein (P29990 2492-3391 limits assumed): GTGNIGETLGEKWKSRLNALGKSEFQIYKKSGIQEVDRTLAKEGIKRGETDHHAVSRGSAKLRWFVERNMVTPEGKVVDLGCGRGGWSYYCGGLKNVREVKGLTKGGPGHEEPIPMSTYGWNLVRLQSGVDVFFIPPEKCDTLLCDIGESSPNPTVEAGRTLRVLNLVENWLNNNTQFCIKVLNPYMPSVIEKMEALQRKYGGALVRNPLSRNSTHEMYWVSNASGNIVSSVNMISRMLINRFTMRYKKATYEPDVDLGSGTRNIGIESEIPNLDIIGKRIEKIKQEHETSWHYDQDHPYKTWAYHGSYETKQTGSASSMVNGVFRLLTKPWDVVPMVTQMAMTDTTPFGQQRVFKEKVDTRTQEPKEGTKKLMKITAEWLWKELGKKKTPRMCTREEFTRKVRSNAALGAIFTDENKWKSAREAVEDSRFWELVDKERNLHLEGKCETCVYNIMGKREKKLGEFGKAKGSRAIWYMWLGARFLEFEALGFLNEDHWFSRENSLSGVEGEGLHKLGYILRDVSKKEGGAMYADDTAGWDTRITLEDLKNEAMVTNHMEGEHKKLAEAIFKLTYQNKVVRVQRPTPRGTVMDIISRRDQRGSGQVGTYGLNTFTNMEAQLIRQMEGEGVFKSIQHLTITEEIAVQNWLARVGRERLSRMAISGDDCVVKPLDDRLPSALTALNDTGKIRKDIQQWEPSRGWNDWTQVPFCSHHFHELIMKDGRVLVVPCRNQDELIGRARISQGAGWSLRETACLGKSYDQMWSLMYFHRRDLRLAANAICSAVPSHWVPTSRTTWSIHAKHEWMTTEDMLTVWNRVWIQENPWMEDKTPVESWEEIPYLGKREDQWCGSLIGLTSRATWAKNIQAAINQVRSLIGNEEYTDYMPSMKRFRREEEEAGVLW
T2 sequence (P11940 whole entry): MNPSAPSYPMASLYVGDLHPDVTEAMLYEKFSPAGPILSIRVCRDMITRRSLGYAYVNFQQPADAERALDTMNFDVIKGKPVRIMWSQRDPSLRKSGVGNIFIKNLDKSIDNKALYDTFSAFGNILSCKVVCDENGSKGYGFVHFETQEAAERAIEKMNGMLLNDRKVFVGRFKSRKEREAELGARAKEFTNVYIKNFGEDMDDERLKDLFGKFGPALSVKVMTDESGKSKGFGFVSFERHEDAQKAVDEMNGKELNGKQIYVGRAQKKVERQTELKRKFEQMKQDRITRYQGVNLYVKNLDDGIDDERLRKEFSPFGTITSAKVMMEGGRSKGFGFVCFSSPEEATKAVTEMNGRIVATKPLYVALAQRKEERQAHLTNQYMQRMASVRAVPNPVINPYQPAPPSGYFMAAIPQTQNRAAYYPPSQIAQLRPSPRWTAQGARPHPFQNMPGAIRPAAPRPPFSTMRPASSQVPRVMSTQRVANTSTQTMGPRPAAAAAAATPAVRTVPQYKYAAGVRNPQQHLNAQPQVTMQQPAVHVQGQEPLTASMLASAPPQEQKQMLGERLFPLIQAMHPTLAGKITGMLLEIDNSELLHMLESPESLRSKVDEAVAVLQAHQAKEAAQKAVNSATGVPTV
T3 sequence (P49327 whole entry, the tested form may be a part): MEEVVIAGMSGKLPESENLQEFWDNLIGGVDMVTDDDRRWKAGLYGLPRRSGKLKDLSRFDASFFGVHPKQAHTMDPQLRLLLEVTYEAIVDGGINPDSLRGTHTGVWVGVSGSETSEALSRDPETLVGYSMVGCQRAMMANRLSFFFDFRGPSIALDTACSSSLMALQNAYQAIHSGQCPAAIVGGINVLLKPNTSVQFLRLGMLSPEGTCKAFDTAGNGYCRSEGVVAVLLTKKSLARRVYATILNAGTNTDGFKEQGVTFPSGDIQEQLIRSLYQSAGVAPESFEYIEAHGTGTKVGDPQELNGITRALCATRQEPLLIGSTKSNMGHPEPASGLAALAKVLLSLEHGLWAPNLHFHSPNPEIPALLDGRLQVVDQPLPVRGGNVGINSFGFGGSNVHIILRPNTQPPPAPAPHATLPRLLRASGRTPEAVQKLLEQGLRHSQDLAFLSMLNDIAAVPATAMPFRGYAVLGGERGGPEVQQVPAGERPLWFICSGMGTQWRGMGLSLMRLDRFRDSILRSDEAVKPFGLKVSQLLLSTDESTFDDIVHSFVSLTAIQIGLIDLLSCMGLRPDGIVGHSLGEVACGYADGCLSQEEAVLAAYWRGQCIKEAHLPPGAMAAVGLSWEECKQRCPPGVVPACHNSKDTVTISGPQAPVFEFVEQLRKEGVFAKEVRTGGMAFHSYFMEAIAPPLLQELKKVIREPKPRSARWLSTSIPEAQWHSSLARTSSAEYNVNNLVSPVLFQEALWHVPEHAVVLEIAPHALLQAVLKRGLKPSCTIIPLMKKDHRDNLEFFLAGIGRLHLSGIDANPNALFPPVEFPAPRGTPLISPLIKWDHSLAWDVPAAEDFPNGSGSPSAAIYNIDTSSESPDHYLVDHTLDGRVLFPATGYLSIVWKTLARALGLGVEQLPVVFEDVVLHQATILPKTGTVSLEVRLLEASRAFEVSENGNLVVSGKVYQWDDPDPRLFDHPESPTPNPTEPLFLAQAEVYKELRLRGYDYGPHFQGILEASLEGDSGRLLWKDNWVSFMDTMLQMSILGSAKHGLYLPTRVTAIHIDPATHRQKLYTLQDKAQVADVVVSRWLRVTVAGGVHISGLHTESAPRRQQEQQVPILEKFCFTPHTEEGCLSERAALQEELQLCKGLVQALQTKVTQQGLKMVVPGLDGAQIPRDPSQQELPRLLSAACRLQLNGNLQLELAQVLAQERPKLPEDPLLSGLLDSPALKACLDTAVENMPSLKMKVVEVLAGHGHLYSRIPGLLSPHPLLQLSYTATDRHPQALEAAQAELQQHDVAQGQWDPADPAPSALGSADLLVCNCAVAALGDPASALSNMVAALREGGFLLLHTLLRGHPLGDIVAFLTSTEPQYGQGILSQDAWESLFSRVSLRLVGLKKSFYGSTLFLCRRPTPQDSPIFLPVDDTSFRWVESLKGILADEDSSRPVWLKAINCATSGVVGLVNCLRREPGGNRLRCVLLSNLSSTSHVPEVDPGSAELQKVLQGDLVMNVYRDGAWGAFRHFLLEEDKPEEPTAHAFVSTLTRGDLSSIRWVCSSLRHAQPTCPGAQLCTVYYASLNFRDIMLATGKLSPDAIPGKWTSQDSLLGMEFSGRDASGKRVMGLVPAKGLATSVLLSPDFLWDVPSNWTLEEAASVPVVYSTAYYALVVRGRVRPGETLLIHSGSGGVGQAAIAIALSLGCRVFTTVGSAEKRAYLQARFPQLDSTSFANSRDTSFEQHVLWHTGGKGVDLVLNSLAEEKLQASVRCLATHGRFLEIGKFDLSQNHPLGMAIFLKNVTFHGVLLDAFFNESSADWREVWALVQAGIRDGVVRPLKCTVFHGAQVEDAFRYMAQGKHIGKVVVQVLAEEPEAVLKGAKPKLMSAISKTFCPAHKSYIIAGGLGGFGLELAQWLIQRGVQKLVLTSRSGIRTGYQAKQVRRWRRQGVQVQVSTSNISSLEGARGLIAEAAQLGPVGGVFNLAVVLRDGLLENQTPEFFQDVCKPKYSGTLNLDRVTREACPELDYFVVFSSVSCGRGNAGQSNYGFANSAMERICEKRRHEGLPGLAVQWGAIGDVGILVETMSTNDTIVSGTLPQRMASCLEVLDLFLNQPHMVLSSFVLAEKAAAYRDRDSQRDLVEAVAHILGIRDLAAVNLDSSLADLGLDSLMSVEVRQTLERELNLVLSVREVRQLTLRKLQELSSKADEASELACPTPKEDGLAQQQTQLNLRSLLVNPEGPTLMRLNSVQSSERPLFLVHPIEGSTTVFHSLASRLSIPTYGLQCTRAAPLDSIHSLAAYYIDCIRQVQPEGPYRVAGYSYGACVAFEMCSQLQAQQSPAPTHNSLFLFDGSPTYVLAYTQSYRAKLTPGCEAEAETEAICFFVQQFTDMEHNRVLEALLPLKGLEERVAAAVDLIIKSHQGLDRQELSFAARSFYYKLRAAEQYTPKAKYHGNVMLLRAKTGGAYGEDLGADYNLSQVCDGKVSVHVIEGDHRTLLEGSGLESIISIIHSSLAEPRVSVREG
Sequence of Glucose-6-phosphate 1-dehydrogenase (P11413 whole entry): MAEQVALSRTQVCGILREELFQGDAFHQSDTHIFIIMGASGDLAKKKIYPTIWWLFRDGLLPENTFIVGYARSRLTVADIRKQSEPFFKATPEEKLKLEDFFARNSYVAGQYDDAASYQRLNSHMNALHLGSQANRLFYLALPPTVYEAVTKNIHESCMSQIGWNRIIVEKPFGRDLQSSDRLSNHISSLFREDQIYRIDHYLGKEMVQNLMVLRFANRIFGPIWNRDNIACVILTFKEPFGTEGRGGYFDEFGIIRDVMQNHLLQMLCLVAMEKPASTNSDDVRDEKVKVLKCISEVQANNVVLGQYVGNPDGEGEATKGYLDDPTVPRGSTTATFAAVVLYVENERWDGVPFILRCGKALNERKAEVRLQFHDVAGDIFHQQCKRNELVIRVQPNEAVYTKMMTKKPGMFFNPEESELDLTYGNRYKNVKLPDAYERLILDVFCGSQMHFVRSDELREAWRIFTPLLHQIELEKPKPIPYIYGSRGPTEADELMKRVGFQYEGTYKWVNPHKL

On to `CCC(=O)N(Cc1c(C)nn(-c2ccccc2)c1Cl)c1ccc(Cl)cc1`, for which the figures for the IC50 in [1] and in assay [3] were 7.02 µM (active) and 19.8 µM (active), respectively. In addition, the EC50 in assay [2] is > 53 µM (inactive).
Consider `COc1ccc(Nc2cc(Cl)ccc2C(=O)O)cn1`, for which the figures for the IC50 in assay [4], in [5] and in [6] were 63.5 µM (active), > 66 µM (inactive) and 52.2 µM (inactive), respectively.
For `CCOC(=O)c1sc(N2C(=O)C(O)=C(C(=O)c3ccco3)C2c2ccc([N+](=O)[O-])cc2)nc1C` (stereo not drawn), the IC50 in assay [4] is 38.1 µM (active); in assay [7], 5.46 µM (active); in [8] it was 7.89 µM (active).
Regarding `COc1ccc(NC(=O)CN(C)S(=O)(=O)c2ccc3nc(O)oc3c2)cc1`, the EC50 in [9] is > 150 µM (not active); in assay [10], > 150 µM (not active); in assay [11], 47.8 µM (active); in assay [12] it was > 150 µM (not active); in assay [13], > 133 µM (inactive).
The term AC50 denotes the concentration at which the activity in the assay is half-maximal. For the molecule `O=C(c1ccc(COc2ccccc2Cl)o1)N1CCCC1`, in assay [14], the AC50 is 77.8 µM (active).
In the case of `CCS(=O)(=O)c1nnnn1-c1ccccc1S(C)(=O)=O`, the figures for the EC50 in assay [15], in [17] and in [19] were 11.7 µM (active), > 120 µM (not active) and > 20 µM (inactive), respectively. Also, the IC50 is 6.55 µM (active) in assay [16], > 20 µM (inactive) in [18], 9.2 µM (active) in assay [20] and > 20 µM (inactive) in assay [21]. Besides, the AC50 in assay [14] was 11.3 µM (active).
In the case of `Cc1ccc2[nH]c3c(c2c1)CCCC3NC(=O)CCl` (stereo not drawn), the EC50 is 13.8 µM (active) in assay [9]; 8.7 µM (active) in assay [10]; > 150 µM (inconclusive) in assay [11]; 7.41 µM (inconclusive) in [12]; 0.565 µM (active) in assay [13]. Besides, the IC50 in [22] was > 80 µM (inactive). Further, in assay [14], the AC50 was 2.36 µM (active).
`O=C(O)CCN1C(=O)/C(=C\c2cccc(OCC(=O)Nc3ccc(Cl)cc3)c2)SC1=S`: in assay [4], the IC50 is 34.9 µM (active).
As to `O=C(Nc1nnc(S(=O)(=O)N2CCCC2)s1)c1cccc([N+](=O)[O-])c1`, the IC50 in [23] is 56 µM (inactive).
`CCCCN(CCCC)c1ccc(C(=O)c2ccccc2C(=O)O)c(O)c1`: the IC50 in assay [4] is 44.1 µM (active).
As for `COc1ccc(Cl)cc1NC(=O)CN(C)S(=O)(=O)c1cccs1`, in assay [14], the AC50 is 51.2 µM (active).
For `COC(=O)c1cc(C#N)c(NCc2ccccc2)nc1C`, the IC50 in [1] was 8.02 µM (active); in assay [3] it was > 20 µM (inactive). In addition, in [2], the EC50 was > 53 µM (inactive).
With `O=C(O)/C(=C\c1c(C(=O)O)[nH]c2cc(Cl)cc(Cl)c12)c1ccccc1`, in assay [4], the IC50 was 75.5 µM (active).
